# According to PMC10056443, “Derivatives of Amaryllidaceae Alkaloid Ambelline as Selective Inhibitors of Hepatic Stage of Plasmodium berghei Infection In Vitro” (Pharmaceutics, 2023):
# Read-outs that look alike come from different tables or passages of the source.
# Legend:
# Huh-7 cell line = assay: Huh-7 cell confluency by alamarBlue assay during hepatic-stage test; type: cell-based
# Protocol: (§1) Activity against the hepatic stage of P. berghei infection was assessed using the human hepatoma cell line Huh-7 (deposited at the Japanese Collection of Research Bioresources under JCRB0403). The protocol was previously comprehensively described by Prudêncio et al. and by Ploemen et al.. Briefly, cell culture medium consisted of 1640 RPMI medium supplemented with 10% v/v fetal calf serum, 1% v/v L-glutamine, 1% v/v nonessential amino acids, 1% v/v penicillin/streptomycin, and 10 mM HEPES, pH 7. Cells were seeded in 96-well plates at a density of 1 × 10^4 cells per well in 100 µL of culture medium and incubated at 37 °C with 5% CO2 for approximately 18 h. […] The culture medium was substituted by infection medium with diluted compounds 1 hour in advance of infection. Luciferase-expressing P. berghei sporozoites (PbA-LuciGFPcon spz) were freshly obtained through the dissection of salivary glands from infected female Anopheles stephensi mosquitoes. Sporozoites were added to the cells at 1:1 ratio, i.e., 1 × 10^4 sporozoites were added per well, and then subjected to centrifugation at 1800× g for 5 min. The plate was then incubated for 46 h at 37 °C with 5% CO2, at which time Huh-7 cell confluency was indirectly assessed by the alamarBlue assay (Invitrogen, Waltham, MA, USA), as reported in the manufacturer’s protocol. Parasite load was assessed 48 h post-infection by a bioluminescence assay, as reported by the manufacturer (Biotium, Fremont, CA, USA). GraphPad Prism 8 (GraphPad Software, Inc., La Jolla, CA, USA) was used to obtain IC50 values using nonlinear regression analysis to fit the dose-response curves normalized results.
# HepG2 cells = assay: Cytotoxicity assessment in vitro (MTT assay); type: cell-based
# Protocol: (§2) HepG2 cells of human hepatocellular carcinoma (ATCC HB-8065; passage 20–25), purchased from Health Protection Agency Culture Collections (ECACC, Salisbury, UK), were cultured in Minimum Essential Medium Eagle supplemented with 10% v/v fetal bovine serum and 1% v/v L-glutamine solution (Sigma-Aldrich, St. Louis, MO, USA) at 37 °C in a humidified atmosphere containing 5% CO2. For passaging, the cells were treated with trypsin/EDTA (Sigma-Aldrich, St. Louis, MO, USA) at 37 °C and then harvested. For the cytotoxicity evaluation, the cells treated with the test substances were used, while untreated HepG2 cells served as a control group. The cells were seeded in a 96-well plate at a density of 1 × 10^4 cells per well and incubated for 24 h. All tested compounds were dissolved in DMSO to prepare 10 mM stock solutions and diluted to the desired concentration just before the cell treatment. Cytotoxicity of all studied derivatives was screened at 10 μM concentration, and all samples were measured in triplicates. Positive and negative controls were also included. Plates were incubated for 24 h in a humidified atmosphere containing 5% CO2 at 37 °C. After the incubation, a solution of thiazolyl blue tetrazolium bromide (Sigma-Aldrich, St. Louis, MO, USA) in RPMI 1640 medium without phenol red (BioTech, Prague, Czech Republic) was added and incubated for 3 h in a humidified atmosphere containing 5% CO2 at 37 °C. Afterwards, formazan crystals were dissolved in DMSO, and the absorbance of samples was recorded at 570 nm (Synergy Neo2 Multi-Mode Reader NEO2SMALPHAB; BioTek, Winooski, VT, USA).
# [1] = Cytotoxicity assessment in vitro (MTT assay); type: cell-based; conditions: human
# Protocol: as §2
# [2] = system: hepatic stage of P. berghei; assay: In vitro activity against P. berghei hepatic stages (luciferase-expressing sporozoites in Huh-7 cells, bioluminescence); type: cell-based, Plasmodium berghei; design: INFECTION (IC50 determination): unit not given here; conditions: for activity at 1 µM / activity at 10 µM / IC50: Plasmodium berghei; for activity at 1 µM / activity at 10 µM: Huh-7, 48 h, read-out: INFECTION Ø screening; for activity at 1 µM / activity at 10 µM / INFECTION (IC50 determination): DMSO = 100
# Protocol: as §1, with “Briefly, cell culture medium consisted of 1640 RPMI medium supplemented with 10% v/v fetal calf serum, 1% v/v L-glutamine, 1% v/v nonessential amino acids, 1% v/v penicillin/streptomycin, and 10 mM HEPES, pH 7.” left out
# [3] = Huh-7, replicate 1, unit (Table 1: µM), read-out: Antiplasmodial activity - IC50 determination, 1. measurement
# [4] = Huh-7, replicate 2, unit (Table 1: µM), read-out: Antiplasmodial activity - IC50 determination, 2. measurement
# [5] = hepatic stage, Huh-7 cells, parasite load 48 h post-infection, read-out: IC50 P. berghei
smiles,measurement,setting,value
"COc1c2c(cc3c1OCO3)[C@]13C=C[C@H](OC)C[C@H]1N(C2)C[C@H]3OC(=O)c1cccc(C)c1 [28f, 11-O-(3-Methylbenzoyl)ambelline]",CELL CONFLUENCY Ø screening,"Huh-7 cell line; human, 46 h, 1 µM, pH 7",118
same,CELL CONFLUENCY Ø screening,"Huh-7 cell line; human, 46 h, 10 µM, pH 7",93.35
same,"1. screening of cytotoxic potential, HepG2 cell line","HepG2 cells; human, 24 h, 10 µM",76.64
same,"2. screening of cytotoxic potential, HepG2 cell line","HepG2 cells; human, 24 h, 10 µM",74.3
same,"3. screening of cytotoxic potential, HepG2 cell line","HepG2 cells; human, 24 h, 10 µM",74.27
same,"Ø screening, HepG2 (sheet Graphs)","HepG2 cells; human, 24 h, 10 µM",75.07
same,"viability at 24 h, 10 µM",[1],75 ± 1%
same,activity at 1 µM,[2],15.1%
same,activity at 10 µM,[2],0.306%
same,IC50,[2]; [3],0.185 µM
same,IC50,[2]; [4],0.41 µM
same,IC50,"[2]; Huh-7, replicate 3, unit (Table 1: µM), read-out: Antiplasmodial activity - IC50 determination, 3. measurement",0.357 µM
same,IC50,[2]; [5],0.317 ± 0.118 µM
"COc1cc(C(=O)O[C@@H]2CN3Cc4c(cc5c(c4OC)OCO5)[C@@]24C=C[C@H](OC)C[C@@H]34)cc(OC)c1OC [28n, 11-O-(3,4,5-Trimethoxybenzoyl)ambelline]",Huh-7 cell viability,Huh-7 cell line,cell viability was not affected at antiplasmodial-active concentrations
same,CELL CONFLUENCY (IC50 determination),"Huh-7 cell line; human, 46 h, 0.001 µM, pH 7",120.661
same,CELL CONFLUENCY (IC50 determination),"Huh-7 cell line; human, 46 h, 0.01 µM, pH 7",126.131
same,CELL CONFLUENCY (IC50 determination),"Huh-7 cell line; human, 46 h, 0.04 µM, pH 7",117.957
same,CELL CONFLUENCY (IC50 determination),"Huh-7 cell line; human, 46 h, 0.07 µM, pH 7",115.634
same,CELL CONFLUENCY (IC50 determination),"Huh-7 cell line; human, 46 h, 0.1 µM, pH 7",118.616
same,CELL CONFLUENCY (IC50 determination),"Huh-7 cell line; human, 46 h, 0.5 µM, pH 7",106.144
same,CELL CONFLUENCY Ø screening,"Huh-7 cell line; human, 46 h, 1 µM, pH 7",69.5
same,CELL CONFLUENCY Ø screening,"Huh-7 cell line; human, 46 h, 10 µM, pH 7",68.02
same,"1. screening of cytotoxic potential, HepG2 cell line","HepG2 cells; human, 24 h, 10 µM",52.2
same,"2. screening of cytotoxic potential, HepG2 cell line","HepG2 cells; human, 24 h, 10 µM",49.89
same,"3. screening of cytotoxic potential, HepG2 cell line","HepG2 cells; human, 24 h, 10 µM",54.09
same,"Ø screening, HepG2 (sheet Graphs)","HepG2 cells; human, 24 h, 10 µM",52.06
same,"viability at 24 h, 10 µM",[1],52 ± 2%
same,activity at 1 µM,[2],2.38%
same,activity at 10 µM,[2],0.82%
same,IC50,"[2]; Huh-7, abstract, read-out: IC50 against hepatic stage of Plasmodium infection",0.047 µM
same,IC50,"[2]; Huh-7, mean, unit (Table 1: µM), read-out: Antiplasmodial activity - Ø IC50",0.047 µM
same,IC50,[2]; [3],0.047 µM
same,IC50,[2]; [4],0.047 µM
same,IC50,[2]; [5],0.047 µM
same,INFECTION (IC50 determination),[2]; at 0.001 µM,132.557
same,INFECTION (IC50 determination),[2]; at 0.01 µM,115.469
same,INFECTION (IC50 determination),[2]; at 0.04 µM,56.6784
same,INFECTION (IC50 determination),[2]; at 0.07 µM,26.9184
same,INFECTION (IC50 determination),[2]; at 0.1 µM,17.5104
same,INFECTION (IC50 determination),[2]; at 0.5 µM,2.9184
"COc1ccc(C(=O)O[C@@H]2CN3Cc4c(cc5c(c4OC)OCO5)[C@@]24C=C[C@H](OC)C[C@@H]34)cc1OC [28l, 11-O-(3,4-Dimethoxybenzoyl)ambelline]",CELL CONFLUENCY Ø screening,"Huh-7 cell line; human, 46 h, 1 µM, pH 7",85.82
same,CELL CONFLUENCY Ø screening,"Huh-7 cell line; human, 46 h, 10 µM, pH 7",70.05
same,"1. screening of cytotoxic potential, HepG2 cell line","HepG2 cells; human, 24 h, 10 µM",106.14
same,"2. screening of cytotoxic potential, HepG2 cell line","HepG2 cells; human, 24 h, 10 µM",89.55
same,"3. screening of cytotoxic potential, HepG2 cell line","HepG2 cells; human, 24 h, 10 µM",102.39
same,"Ø screening, HepG2 (sheet Graphs)","HepG2 cells; human, 24 h, 10 µM",99.36
same,"viability at 24 h, 10 µM",[1],99 ± 9%
same,activity at 1 µM,[2],1.65%
same,activity at 10 µM,[2],0.301%
same,IC50,[2]; [3],0.16 µM
same,IC50,[2]; [4],0.135 µM
same,IC50,[2]; [5],0.147 ± 0.018 µM
"COc1ccc(C(=O)O[C@@H]2CN3Cc4c(cc5c(c4OC)OCO5)[C@@]24C=C[C@H](OC)C[C@@H]34)cc1 [28k, 11-O-(4-Methoxybenzoyl)ambelline]",CELL CONFLUENCY Ø screening,"Huh-7 cell line; at 1 μM, DMSO = 100, in % (unit assumed)",107.6
same,CELL CONFLUENCY Ø screening,"Huh-7 cell line; at 10 μM, DMSO = 100, in % (unit assumed)",76.48
same,"Ø screening, HepG2 (sheet Graphs)","HepG2 cells; c = 10 μM, DMSO = 100, in %",87.88
same,"1. screening of cytotoxic potential, HepG2 cell line","HepG2 cells; c = 10 μM, replicate 1, in %",88.02
same,"2. screening of cytotoxic potential, HepG2 cell line","HepG2 cells; c = 10 μM, replicate 2, in %",89.64
same,"3. screening of cytotoxic potential, HepG2 cell line","HepG2 cells; c = 10 μM, replicate 3, in %",85.98
same,"viability at 24 h, 10 µM","[1]; c = 10 µM, 24 h, MTT, read-out: HepG2 % of cell viability compared to non-treated control (100%)",88 ± 2%
same,activity at 1 µM,[2],19.9%
same,activity at 10 µM,[2],0.872%
same,IC50,[2]; [3],0.446 µM
same,IC50,[2]; [4],0.456 µM
same,IC50,[2]; [5],0.451 ± 0.007 µM
"CCOc1cc(OCC)cc(C(=O)O[C@@H]2CN3Cc4c(cc5c(c4OC)OCO5)[C@@]24C=C[C@H](OC)C[C@@H]34)c1 [28o, 11-O-(3,5-Diethoxybenzoyl)ambelline]",CELL CONFLUENCY Ø screening,"Huh-7 cell line; human, 46 h, 1 µM, pH 7",97.15
same,CELL CONFLUENCY Ø screening,"Huh-7 cell line; human, 46 h, 10 µM, pH 7",52.09
same,"1. screening of cytotoxic potential, HepG2 cell line","HepG2 cells; human, 24 h, 10 µM",65.61
same,"2. screening of cytotoxic potential, HepG2 cell line","HepG2 cells; human, 24 h, 10 µM",51.07
same,"3. screening of cytotoxic potential, HepG2 cell line","HepG2 cells; human, 24 h, 10 µM",51.54
same,"Ø screening, HepG2 (sheet Graphs)","HepG2 cells; human, 24 h, 10 µM",56.07
same,"viability at 24 h, 10 µM",[1],56 ± 8%
same,activity at 1 µM,[2],10.9%
same,activity at 10 µM,[2],0.0467%
same,IC50,[2]; [3],0.307 µM
same,IC50,[2]; [4],0.326 µM
same,IC50,[2]; [5],0.316 ± 0.013 µM
